Laboratory results reported in US20110045101A1, “FUNGICIDAL SUBSTITUTED AZOLES” (E.I. Du Pont De Nemours and Company, priority 2009, published 2011).
Marks after values point to notes of the source that are not given here.

What was measured:
Format in all cases: in vivo
[1] = system: Septoria nodorum; experiment: Test F: wheat glume blotch on wheat seedlings, sprayed the day before inoculation, visual disease rating; conditions: 100 = 100% disease control; for pest or weed control at 200 ppm: Parastagonospora nodorum, 264 h
Procedure, shortened: (§1)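 Compounds were dissolved in acetone (3% of final volume), then suspended in 50/50 acetone/purified water with 250 ppm Trem® 014 surfactant. Suspensions at 200 ppm (some at 40 ppm) were sprayed to run-off, 200 ppm being equivalent to 500 g/ha.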

[2] = system: Alternaria solani; experiment: Test D: tomato early blight, sprayed the day before inoculation, visual disease rating; conditions: 100 = 100% disease control; for pest or weed control at 200 ppm: Alternaria solani, 168 h
Procedure, shortened: as §1

[3] = system: Puccinia recondita f. sp. tritici; experiment: Test H: wheat leaf rust, test suspension sprayed after inoculation of wheat seedlings, visual disease rating; conditions: 100 = 100% disease control; for pest or weed control at 200 ppm: Puccinia recondita, 96 h
Procedure, shortened: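 Wheat seedlings inoculated with P. recondita spores, held 24 h saturated at 20 °C, then 2 days in growth chamber at 20 °C; compound suspension (acetone/water with Trem 014) sprayed to run-off afterwards. Rated visually; 200 ppm (≈500 g/ha) unless marked *, which denotes 40 ppm.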

[4] = system: Septoria tritici; experiment: Test G: wheat leaf blotch on wheat seedlings, sprayed the day before inoculation, visual disease rating; conditions: 100 = 100% disease control; for pest or weed control at 200 ppm: Zymoseptoria tritici, 504 h
Procedure, shortened: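 Compounds dissolved in acetone (3% of final volume), then suspended in 50/50 acetone/water with 250 ppm Trem® 014 and sprayed to run-off on seedlings at 200 ppm (≈500 g/ha) or 40 ppm where marked. Inoculation with spores followed next day; visual rating after 48 h saturated at 24° C plus 19 days at 20° C.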

[5] = system: Puccinia recondita f. sp. tritici; experiment: Test I: wheat leaf rust on wheat seedlings, sprayed the day before inoculation, visual disease rating; conditions: 100 = 100% disease control; for pest or weed control at 200 ppm: Puccinia recondita, 168 h
Procedure, shortened: as §1

[6] = system: Erysiphe graminis f. sp. tritici; experiment: Test J: wheat powdery mildew on wheat seedlings, sprayed the day before inoculation, visual disease rating; conditions: 100 = 100% disease control; for pest or weed control at 200 ppm: Blumeria graminis, 168 h
Procedure, shortened: as §1

[7] = system: Botrytis cinerea; experiment: Test C: tomato Botrytis on tomato seedlings, sprayed the day before inoculation, visual disease rating; conditions: 100 = 100% disease control; for pest or weed control at 200 ppm: Botrytis cinerea, 120 h
Procedure, shortened: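 Compounds were dissolved in acetone (3% of final volume), then suspended in 50/50 acetone/purified water containing 250 ppm polyhydric alcohol ester surfactant. Suspensions were sprayed to run-off on tomato seedlings at 200 ppm, equivalent to 500 g/ha, or at 40 ppm where marked.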

[8] = 200 ppm, 0 = no control relative to controls
[9] = 40 ppm (marked *), 0 = no control

| Compound | Test F disease control rating [1, 8] [%] | Test D disease control rating [2, 8] [%] | Test H disease control rating [3, 8] [%] | Test G disease control rating [4, 8] [%] | Test I disease control rating [5, 8] [%] | Test J disease control rating [6, 8] [%] | Test C disease control rating [7, 8] [%] | other results |
| --- | --- | --- | --- | --- | --- | --- | --- | --- |
| COC(=O)c1ccc(-n2c(Cl)nc(Cl)c2-c2c(F)cccc2F)cc1 [compound 649] | – | – | – | – | – | – | – | Test F disease control rating ([1]; 40 ppm (marked *)): 0* %; Test D disease control rating ([2]; 40 ppm (marked *)): 0* %; Test H disease control rating ([3]; 40 ppm (marked *)): 0* %; Test G disease control rating ([4]; 40 ppm (marked *)): 97* %; Test I disease control rating ([5]; 40 ppm (marked *)): 61* %; Test J disease control rating ([6]; 40 ppm (marked *)): 0* %; Test C disease control rating ([7]; 40 ppm (marked *)): 0* % |
| COc1ccc(F)c(-c2c(Cl)nc(C)n2-c2ccc(Cl)cc2)c1Cl [compound 519] | 100 | 100 | 0 | 97 | 100 | 100 | 100 | – |
| Fc1cc(-n2cnc(Cl)c2-c2c(F)cncc2F)ccc1Cl [compound 594] | 0 | 99 | 78 | 94 | 99 | 100 | 100 | – |
| CCOc1ccc(F)c(-c2c(Cl)nc(Br)n2-c2ccc(Cl)cc2)c1F [compound 662] | 100 | 99 | 0 | 99 | 98 | 100 | 100 | – |
| Cc1nc(C)n(-c2ccc(F)cc2Cl)c1-c1ccc(Cl)c(F)c1 [compound 543] | – | – | – | – | – | – | – | Test F disease control rating ([1]; 40 ppm (marked *)): 0* %; Test D disease control rating ([2]; 40 ppm (marked *)): 60* %; Test H disease control rating ([3]; 40 ppm (marked *)): 0* %; Test G disease control rating ([4]; 40 ppm (marked *)): 97* %; Test I disease control rating ([5]; 40 ppm (marked *)): 95* %; Test J disease control rating ([6]; 40 ppm (marked *)): 0* %; Test C disease control rating ([7]; 40 ppm (marked *)): 99* % |
| Cc1nc(Cl)c(-c2c(F)cc(F)cc2F)n1-c1cccc(OC(F)(F)F)c1 [compound 611] | 0 | 66 | 0 | 81 | 16 | 57 | 91 | – |
| Cc1nc(Cl)n(-c2ccc(F)cc2Cl)c1-c1ccc(Cl)c(F)c1 [compound 573] | 0 | 100 | 22 | 96 | 100 | 99 | 100 | – |
| Cc1nc(Cl)c(-c2ccc(Cl)cc2)n1-c1c(F)cc([N+](=O)[O-])cc1F [compound 708] | 82 | 0 | 7 | 99 | 80 | 89 | 100 | – |
| COc1cc(F)c(-c2c(Cl)nc(Br)n2-c2ccc(C)c(I)c2)c(F)c1 [compound 655] | – | – | – | – | – | – | – | Test F disease control rating ([1]; 40 ppm (marked *)): 0* %; Test D disease control rating ([2]; 40 ppm (marked *)): 0* %; Test H disease control rating ([3]; 40 ppm (marked *)): 49* %; Test G disease control rating ([4]; 40 ppm (marked *)): 97* %; Test I disease control rating ([5]; 40 ppm (marked *)): 9* %; Test J disease control rating ([6]; 40 ppm (marked *)): 0* %; Test C disease control rating ([7]; 40 ppm (marked *)): 8* % |
| COc1ccc(Cl)c(-c2c(Cl)nc(C)n2-c2ccc(Cl)cc2)c1F [compound 550] | 100 | 100 | 0 | 97 | 99 | 100 | 100 | – |
| Cc1ccc(-n2c(Cl)nc(Cl)c2-c2c(F)ccc(C#N)c2F)cc1 [compound 680] | 98 | 100 | 0 | 100 | 100 | 100 | 99 | – |
| COc1cc(F)c(-c2c(Cl)nc(C=O)n2-c2ccc(F)cc2)c(F)c1 [Compound 276, 4-chloro-5-(2,6-difluoro-4-methoxyphenyl)-1-(4-fluorophenyl)-1H-imidazole-2-carboxaldehyde] | – | – | – | – | – | – | – | pest or weed control at 200 ppm ([1]; 200 ppm, 0 = no control): 0%; pest or weed control at 200 ppm ([2]; 200 ppm, 0 = no control): 100%; pest or weed control at 200 ppm ([3]; 200 ppm, 0 = no control): 9%; pest or weed control at 200 ppm ([4]; 200 ppm, 0 = no control): 92%; pest or weed control at 200 ppm ([5]; 200 ppm, 0 = no control): 98%; pest or weed control at 200 ppm ([6]; 200 ppm, 0 = no control): 100%; pest or weed control at 200 ppm ([7]; 200 ppm, 0 = no control): 100% |
| Cc1nc(Cl)n(-c2c(F)cccc2F)c1-c1ccc(Cl)cc1 [compound 466] | – | – | – | – | – | – | – | Test F disease control rating ([1]; 40 ppm (marked *)): 0* %; Test D disease control rating ([2]; 40 ppm (marked *)): 100* %; Test H disease control rating ([3]; 40 ppm (marked *)): 0* %; Test G disease control rating ([4]; 40 ppm (marked *)): 82* %; Test I disease control rating ([5]; 40 ppm (marked *)): 93* %; Test J disease control rating ([6]; 40 ppm (marked *)): 100* %; Test C disease control rating ([7]; 40 ppm (marked *)): 99* % |
| Fc1cccc(F)c1-n1c(-c2ccc(Cl)cc2)cnc1Cl [compound 341] | – | – | – | – | – | – | – | Test F disease control rating [1, 9]: 0* %; Test D disease control rating [2, 9]: 24* %; Test H disease control rating [3, 9]: 9* %; Test G disease control rating [4, 9]: 0* %; Test I disease control rating [5, 9]: 0* %; Test J disease control rating [6, 9]: 0* %; Test C disease control rating [7, 9]: 91* % |
| Cc1cccc(-c2c(C)nc(Cl)n2-c2ccc(Cl)c(F)c2)n1 [compound 378] | 0 | 0 | 0 | 93 | 74 | 75 | 100 | – |
| COc1cc(F)c(-c2c(Cl)nnn2-c2ccc(Cl)cc2)c(F)c1 [compound 626] | 0 | 99 | 17 | 100 | 79 | 97 | 99 | – |
| Fc1cccc(F)c1-c1c(Br)nc(CCBr)n1-c1ccc(Cl)cc1 [Compound 475, 4-bromo-2-(bromoethyl)-1-(4-chlorophenyl)-5-(2,6-difluorophenyl)-1H-imidazole] | – | – | – | – | – | – | – | pest or weed control at 200 ppm [1, 8]: 0%; pest or weed control at 200 ppm [2, 8]: 26%; pest or weed control at 200 ppm [3, 8]: 0%; pest or weed control at 200 ppm [4, 8]: 92%; pest or weed control at 200 ppm [5, 8]: 87%; pest or weed control at 200 ppm [6, 8]: 42%; pest or weed control at 200 ppm [7, 8]: 98% |
| N#Cc1ccc(F)c(-c2c(CCl)nc(Cl)n2-c2ccc(Cl)nc2)c1F [compound 717] | 0 | 100 | 0 | 99 | 96 | 79 | 100 | – |
| COc1cc(F)c(-c2c(Cl)nc(N)n2-c2ccc(Cl)cc2)c(F)c1 [compound 638] | 55 | 99 | 0 | 99 | 95 | 56 | 99 | – |
| COc1cc(F)c(-c2c(Cl)ncn2-c2ccc(OC(F)F)cc2)c(F)c1 [compound 557] | 78 | 99 | 43 | 96 | 99 | 87 | 100 | – |
| COc1ccc(F)c(-c2c(Cl)nc(Cl)n2-c2cccc(C)c2)c1F [compound 391] | 0 | 99 | 0 | 94 | 99 | 100 | 100 | – |
